According to ChEMBL document CHEMBL1201862, “PubChem BioAssay data set” (2004):
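Growth conditions: 96-well plates. Treatment: test compound, 48 hours, 5 concentrations. Analysis: linear interpolation between bracketing concentrations; unreached endpoints set to highest concentration. GI50: concentration for 50% inhibition of growth.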 Activity calls are given as the source filed them. Cut-off read from the data, not from the text of the source: active = GI50 up to about 1.1 µM and inactive = higher.

Assays:
Test in all cases: NCI tumour cell line growth inhibition, 48 h
HCT-116 = test system: HCT-116
HCC 2998 = test system: HCC 2998
NCI-H23 = test system: NCI-H23
MDA-MB-435 = test system: MDA-MB-435
MDA-N = test system: MDA-N
SK-MEL-5 = test system: SK-MEL-5
CCRF-CEM = test system: CCRF-CEM
NCI-H522 = test system: NCI-H522
MDA-MB-231 = test system: MDA-MB-231
OVCAR-5 = test system: OVCAR-5
NCI-H460 = test system: NCI-H460
OVCAR-8 = test system: OVCAR-8
CAKI-1 = test system: CAKI-1
HCT-15 = test system: HCT-15
SK-MEL-28 = test system: SK-MEL-28
RXF 393 = test system: RXF 393
COLO 205 = test system: COLO 205
SF-295 = test system: SF-295
T47D = test system: T47D
ACHN = test system: ACHN
DU-145 = test system: DU-145
TK-10 = test system: TK-10
SW-620 = test system: SW-620
UO-31 = test system: UO-31
OVCAR-4 = test system: OVCAR-4
MCF7 = test system: MCF7
A498 = test system: A498
SR = test system: SR
U-251 = test system: U-251
NCI/ADR-RES = test system: NCI/ADR-RES
SNB-19 = test system: SNB-19
HL-60 = test system: HL-60
M14 = test system: M14
HOP-92 = test system: HOP-92
HT-29 = test system: HT-29
RPMI-8226 = test system: RPMI-8226
PC-3 = test system: PC-3
IGROV-1 = test system: IGROV-1
MOLT-4 = test system: MOLT-4
SK-MEL-2 = test system: SK-MEL-2
SK-OV-3 = test system: SK-OV-3
LOX IMVI = test system: LOX IMVI
SF-268 = test system: SF-268
SNB-75 = test system: SNB-75
OVCAR-3 = test system: OVCAR-3
K562 = test system: K562
SF-539 = test system: SF-539
NCI-H226 = test system: NCI-H226
EKVX = test system: EKVX
Hs-578T = test system: Hs-578T
UACC-62 = test system: UACC-62
786-0 = test system: 786-0
UACC-257 = test system: UACC-257
Malme-3M = test system: Malme-3M
SN12C = test system: SN12C
KM12 = test system: KM12
A549 = test system: A549
HOP-62 = test system: HOP-62

**Q.** `O=[N+]([O-])/C(C(Cl)=C(Cl)Cl)=C(/Cl)SCc1ccccc1` was tested. Which GI50 (HCT-116) did it give?
**A.** The GI50 was 1.82 µM (inactive).

**Q.** What about the GI50 (HCC 2998) of the same molecule?
**A.** Its GI50 is 24.8 µM (inactive).

**Q.** What about the GI50 (NCI-H23) of the same molecule?
**A.** Its GI50 is 6.03 µM (inactive).

**Q.** And the GI50 (MDA-MB-435)?
**A.** The GI50 was 2.35 µM (inactive).

**Q.** And the GI50 (MDA-N)?
**A.** The GI50 was 1.84 µM (inactive).

**Q.** And the GI50 (SK-MEL-5)?
**A.** The GI50 was 8.43 µM (inactive).

**Q.** What about the GI50 (CCRF-CEM) of the same molecule?
**A.** The GI50 was 0.202 µM (active).

**Q.** What about the GI50 (NCI-H522) of the same molecule?
**A.** Its GI50 is 2.78 µM (inactive).

**Q.** What about the GI50 (MDA-MB-231) of the same molecule?
**A.** Its GI50 is 2.3 µM (inactive).

**Q.** What about the GI50 (OVCAR-5) of the same molecule?
**A.** The GI50 was 5.09 µM (inactive).

**Q.** What about the GI50 (NCI-H460) of the same molecule?
**A.** The GI50 was 16.3 µM (inactive).

**Q.** What about the GI50 (OVCAR-8) of the same molecule?
**A.** The GI50 was 1.34 µM (inactive).

**Q.** And the GI50 (CAKI-1)?
**A.** Its GI50 is 3.18 µM (inactive).

**Q.** What about the GI50 (HCT-15) of the same molecule?
**A.** The GI50 was 5 µM.

**Q.** What about the GI50 (SK-MEL-28) of the same molecule?
**A.** The GI50 was 5.65 µM (inactive).

**Q.** And the GI50 (RXF 393)?
**A.** The GI50 was 3.01 µM (inactive).

**Q.** What about the GI50 (COLO 205) of the same molecule?
**A.** The GI50 was 1.74 µM (inactive).

**Q.** What about the GI50 (SF-295) of the same molecule?
**A.** The GI50 was 34.4 µM (inactive).

**Q.** What about the GI50 (T47D) of the same molecule?
**A.** The GI50 was 14.6 µM (inactive).

**Q.** What about the GI50 (ACHN) of the same molecule?
**A.** The GI50 was 2.89 µM (inactive).

**Q.** What about the GI50 (DU-145) of the same molecule?
**A.** The GI50 was 17.3 µM (inactive).

**Q.** What about the GI50 (TK-10) of the same molecule?
**A.** Its GI50 is 5.86 µM (inactive).

**Q.** And the GI50 (SW-620)?
**A.** The GI50 was 2.18 µM (inactive).

**Q.** What about the GI50 (UO-31) of the same molecule?
**A.** Its GI50 is 2.22 µM (inactive).

**Q.** And the GI50 (OVCAR-4)?
**A.** Its GI50 is 2.85 µM (inactive).

**Q.** What about the GI50 (MCF7) of the same molecule?
**A.** Its GI50 is 0.495 µM (active).

**Q.** What about the GI50 (A498) of the same molecule?
**A.** The GI50 was 24.3 µM (inactive).

**Q.** What about the GI50 (SR) of the same molecule?
**A.** Its GI50 is 1.43 µM (inactive).

**Q.** And the GI50 (U-251)?
**A.** The GI50 was 8.04 µM (inactive).

**Q.** And the GI50 (NCI/ADR-RES)?
**A.** Its GI50 is 1.85 µM (inactive).

**Q.** And the GI50 (SNB-19)?
**A.** The GI50 was 22.5 µM (inactive).

**Q.** And the GI50 (HL-60)?
**A.** The GI50 was 0.229 µM (active).

**Q.** What about the GI50 (M14) of the same molecule?
**A.** The GI50 was 1.83 µM (inactive).

**Q.** What about the GI50 (HOP-92) of the same molecule?
**A.** The GI50 was 4.33 µM (inactive).

**Q.** What about the GI50 (HT-29) of the same molecule?
**A.** The GI50 was 11.5 µM (inactive).

**Q.** And the GI50 (RPMI-8226)?
**A.** Its GI50 is 0.889 µM (active).

**Q.** And the GI50 (PC-3)?
**A.** The GI50 was 16 µM (inactive).

**Q.** And the GI50 (IGROV-1)?
**A.** The GI50 was 20.7 µM (inactive).

**Q.** What about the GI50 (MOLT-4) of the same molecule?
**A.** Its GI50 is 0.393 µM (active).

**Q.** And the GI50 (SK-MEL-2)?
**A.** The GI50 was 22.1 µM (inactive).

**Q.** What about the GI50 (SK-OV-3) of the same molecule?
**A.** Its GI50 is 21.2 µM (inactive).

**Q.** And the GI50 (LOX IMVI)?
**A.** The GI50 was 11.3 µM (inactive).

**Q.** And the GI50 (SF-268)?
**A.** Its GI50 is 12.4 µM (inactive).

**Q.** What about the GI50 (SNB-75) of the same molecule?
**A.** The GI50 was 1.02 µM (active).

**Q.** What about the GI50 (OVCAR-3) of the same molecule?
**A.** The GI50 was 3.66 µM (inactive).

**Q.** What about the GI50 (K562) of the same molecule?
**A.** Its GI50 is 1.15 µM (inactive).

**Q.** What about the GI50 (SF-539) of the same molecule?
**A.** The GI50 was 6.62 µM (inactive).

**Q.** And the GI50 (NCI-H226)?
**A.** The GI50 was 25.2 µM (inactive).

**Q.** And the GI50 (EKVX)?
**A.** Its GI50 is 20.4 µM (inactive).

**Q.** And the GI50 (Hs-578T)?
**A.** The GI50 was 4.48 µM (inactive).

**Q.** And the GI50 (UACC-62)?
**A.** Its GI50 is 3.94 µM (inactive).

**Q.** And the GI50 (786-0)?
**A.** The GI50 was 1.65 µM (inactive).

**Q.** And the GI50 (UACC-257)?
**A.** Its GI50 is 3.39 µM (inactive).

**Q.** What about the GI50 (Malme-3M) of the same molecule?
**A.** Its GI50 is 2.47 µM (inactive).

**Q.** What about the GI50 (SN12C) of the same molecule?
**A.** Its GI50 is 3.61 µM (inactive).

**Q.** What about the GI50 (KM12) of the same molecule?
**A.** The GI50 was 18.8 µM (inactive).

**Q.** What about the GI50 (A549) of the same molecule?
**A.** Its GI50 is 16.3 µM (inactive).

**Q.** And the GI50 (HOP-62)?
**A.** The GI50 was 15.2 µM (inactive).

**Q.** What does the source list for `COc1ccc(N(C(=O)NCCO)c2ccccc2)cc1`?
**A.** GI50 (HCT-116): > 100 µM (inactive); GI50 (HCC 2998): > 100 µM (inactive); GI50 (NCI-H23): > 100 µM (inactive); GI50 (MDA-MB-435): > 100 µM (inactive); GI50 (MDA-N): > 100 µM (inactive); GI50 (SK-MEL-5): > 100 µM (inactive); GI50 (CCRF-CEM): > 100 µM (inactive); GI50 (NCI-H522): > 100 µM (inactive); GI50 (MDA-MB-231): > 100 µM (inactive); GI50 (OVCAR-5): > 100 µM (inactive); GI50 (NCI-H460): > 100 µM (inactive); GI50 (OVCAR-8): > 100 µM (inactive); GI50 (CAKI-1): > 100 µM (inactive); GI50 (HCT-15): > 100 µM; GI50 (SK-MEL-28): > 100 µM (inactive); GI50 (RXF 393): > 100 µM (inactive); GI50 (COLO 205): > 100 µM (inactive); GI50 (SF-295): > 100 µM (inactive); GI50 (T47D): > 100 µM (inactive); GI50 (ACHN): > 100 µM (inactive); GI50 (DU-145): > 100 µM (inactive); GI50 (TK-10): > 100 µM (inactive); GI50 (SW-620): > 100 µM (inactive); GI50 (UO-31): > 100 µM (inactive); GI50 (OVCAR-4): > 100 µM (inactive); GI50 (MCF7): > 100 µM (inactive); GI50 (A498): > 100 µM (inactive); GI50 (SR): > 100 µM (inactive); GI50 (U-251): > 100 µM (inactive); GI50 (NCI/ADR-RES): > 100 µM (inactive); GI50 (SNB-19): > 100 µM (inactive); GI50 (HL-60): > 100 µM (inactive); GI50 (M14): > 100 µM (inactive); GI50 (HOP-92): > 100 µM (inactive); GI50 (HT-29): > 100 µM (inactive); GI50 (RPMI-8226): > 100 µM (inactive); GI50 (PC-3): > 100 µM (inactive); GI50 (IGROV-1): > 100 µM (inactive); GI50 (MOLT-4): > 100 µM (inactive); GI50 (SK-MEL-2): > 100 µM (inactive); GI50 (SK-OV-3): > 100 µM (inactive); GI50 (LOX IMVI): > 100 µM (inactive); GI50 (SF-268): > 100 µM (inactive); GI50 (SNB-75): > 100 µM (inactive); GI50 (OVCAR-3): > 100 µM (inactive); GI50 (K562): > 100 µM (inactive); GI50 (SF-539): > 100 µM (inactive); GI50 (NCI-H226): > 100 µM (inactive); GI50 (EKVX): > 100 µM (inactive); GI50 (Hs-578T): > 100 µM (inactive); GI50 (UACC-62): > 100 µM (inactive); GI50 (786-0): > 100 µM (inactive); GI50 (UACC-257): > 100 µM (inactive); GI50 (Malme-3M): > 100 µM (inactive); GI50 (SN12C): > 100 µM (inactive); GI50 (KM12): > 100 µM (inactive); GI50 (A549): > 100 µM (inactive); GI50 (HOP-62): > 100 µM (inactive)
